Data: BindingDB's records for doi:10.1007/s002109900141 (Novartis Pharma, 1999)
Values joined by “and” are separate entries in the source; they are usually repeats but may differ in a detail not shown here. Equal values may be shown once. *1 amine or outer side, *2 acyl side, *3 side chain or, on linkers, in order; H or OH if unused. Where a SMILES comes first, the peptide text is derived from it. Bridges are numbered along the chain shown (N, C = ends). [ ]: non-standard residue; d: D form. The star is where a group is joined. d1Nal = N[C@H](Cc1cccc2ccccc12)C(=O)O; Asu = N[C@@H](CCCCCC(=O)O)C(=O)O; X1 = O=C(C(N[*:1])S[*:3])[*:2]; Ahp = NCCCCCCC(=O)O; Bn = c1ccc(C*)cc1; Mpa = O=C(O)CCS

Legend:
[1] = target: Somatostatin receptor type 3 (Homo sapiens, UniProt P32745)
[2] = target: Somatostatin receptor type 1 (Homo sapiens, UniProt P30872)
[3] = target: Somatostatin receptor type 4 (Homo sapiens, UniProt P31391)
[4] = target: Somatostatin receptor type 2 (Homo sapiens, UniProt P30874)
[5] = target: Somatostatin receptor type 5 (Homo sapiens, UniProt P35346)
Chain of Somatostatin receptor type 5 (P35346 whole entry): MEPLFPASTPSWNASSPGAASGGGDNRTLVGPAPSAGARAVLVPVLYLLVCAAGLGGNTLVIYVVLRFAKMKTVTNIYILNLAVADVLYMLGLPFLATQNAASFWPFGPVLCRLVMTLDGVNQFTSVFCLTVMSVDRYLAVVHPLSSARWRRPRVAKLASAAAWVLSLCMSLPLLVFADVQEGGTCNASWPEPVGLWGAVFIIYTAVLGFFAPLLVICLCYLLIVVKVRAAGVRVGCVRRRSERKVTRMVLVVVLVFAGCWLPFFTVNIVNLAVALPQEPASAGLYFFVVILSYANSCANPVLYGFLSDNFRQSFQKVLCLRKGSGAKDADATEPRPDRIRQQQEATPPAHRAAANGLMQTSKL

Chain of Somatostatin receptor type 3 (P32745 whole entry): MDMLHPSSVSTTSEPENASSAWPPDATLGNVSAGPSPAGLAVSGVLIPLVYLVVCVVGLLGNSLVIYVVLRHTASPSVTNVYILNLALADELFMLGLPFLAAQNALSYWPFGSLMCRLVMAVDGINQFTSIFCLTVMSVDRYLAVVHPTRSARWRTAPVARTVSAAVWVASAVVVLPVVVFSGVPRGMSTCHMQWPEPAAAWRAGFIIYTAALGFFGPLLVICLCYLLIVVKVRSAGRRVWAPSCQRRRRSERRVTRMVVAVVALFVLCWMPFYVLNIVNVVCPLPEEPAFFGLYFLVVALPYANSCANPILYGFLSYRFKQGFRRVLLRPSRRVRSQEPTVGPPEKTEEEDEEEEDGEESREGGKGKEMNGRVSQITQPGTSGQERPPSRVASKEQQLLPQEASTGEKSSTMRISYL
Chain of Somatostatin receptor type 4 (P31391 whole entry): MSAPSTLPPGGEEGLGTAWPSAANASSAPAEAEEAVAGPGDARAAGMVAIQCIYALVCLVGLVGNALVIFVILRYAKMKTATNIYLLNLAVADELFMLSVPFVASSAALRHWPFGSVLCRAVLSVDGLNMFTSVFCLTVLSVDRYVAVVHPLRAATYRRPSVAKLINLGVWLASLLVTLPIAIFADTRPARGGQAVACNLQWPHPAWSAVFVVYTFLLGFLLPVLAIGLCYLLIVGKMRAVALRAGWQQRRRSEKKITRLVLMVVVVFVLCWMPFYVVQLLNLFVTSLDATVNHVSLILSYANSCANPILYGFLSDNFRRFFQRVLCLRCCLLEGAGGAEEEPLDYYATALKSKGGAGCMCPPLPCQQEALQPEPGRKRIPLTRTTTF
Chain of Somatostatin receptor type 2 (P30874 whole entry): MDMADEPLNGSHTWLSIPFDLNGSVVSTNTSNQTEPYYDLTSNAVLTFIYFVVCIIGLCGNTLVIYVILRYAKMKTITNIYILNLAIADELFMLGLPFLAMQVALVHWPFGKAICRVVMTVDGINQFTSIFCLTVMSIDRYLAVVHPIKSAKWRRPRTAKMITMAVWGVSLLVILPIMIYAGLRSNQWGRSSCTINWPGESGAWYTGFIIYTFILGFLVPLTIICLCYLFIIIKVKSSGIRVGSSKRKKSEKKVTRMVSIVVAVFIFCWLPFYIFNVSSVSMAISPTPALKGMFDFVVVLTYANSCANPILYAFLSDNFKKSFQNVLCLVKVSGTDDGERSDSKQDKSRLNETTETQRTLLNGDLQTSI
Chain of Somatostatin receptor type 1 (P30872 whole entry): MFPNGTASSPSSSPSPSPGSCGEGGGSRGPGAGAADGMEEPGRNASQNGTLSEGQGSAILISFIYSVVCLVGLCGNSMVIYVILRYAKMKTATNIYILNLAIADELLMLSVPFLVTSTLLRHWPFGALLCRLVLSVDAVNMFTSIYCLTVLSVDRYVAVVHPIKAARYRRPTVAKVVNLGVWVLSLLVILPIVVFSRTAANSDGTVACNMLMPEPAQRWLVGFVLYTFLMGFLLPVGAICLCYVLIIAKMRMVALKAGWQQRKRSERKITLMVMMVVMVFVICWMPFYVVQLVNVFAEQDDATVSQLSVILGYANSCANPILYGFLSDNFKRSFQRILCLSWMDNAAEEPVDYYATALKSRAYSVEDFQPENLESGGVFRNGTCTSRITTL

SMILES | Ki [1] | Ki [2] | Ki [3] | Ki [4] | Ki [5]
C[C@@H](O)[C@@H]1NC(=O)[C@H](CCCCN)NC(=O)[C@@H](Cc2c[nH]c3ccccc23)NC(=O)[C@H](Cc2ccccc2)NC(=O)[C@@H]2CCCN2C(=O)[C@H](Cc2ccccc2)NC1=O (cyclo(PF[dW]KTF)) | 107 nM | 2190 nM | 2290 nM |  | 
CC(C)[C@@H]1NC(=O)[C@H](CCCCN)NC(=O)[C@@H](Cc2c[nH]c3ccccc23)NC(=O)[C@H](Cc2ccc(O)cc2)NC(=O)[C@@H](NC(=O)[C@H](N)Cc2ccc3ccccc3c2)CSSC[C@@H](C(=O)N[C@H](C(N)=O)[C@@H](C)O)NC1=O [3-(2-Naphtyl)-D-Ala-L-Cys(1)-L-Tyr-D-Trp-L-Lys-L-Val-L-Cys(1)-L-Thr-NH2] | 11.7 nM | 178 nM |  | 0.37 nM | 
C[C@@H](O)[C@@H]1NC(=O)[C@H](CCCCN)NC(=O)[C@@H](Cc2c[nH]c3ccccc23)NC(=O)[C@H](Cc2ccc(O)cc2)NC(=O)[C@@H](NC(=O)[C@H](N)Cc2ccccc2)CSSC[C@@H](C(=O)N[C@H](CO)[C@@H](C)O)NC1=O [10-(4-Amino-butyl)-19-(2-amino-3-phenyl-propionylamino)-16-(4-hydroxy-benzyl)-7-(1-hydroxy-ethyl)-13-(1H-indol-3-ylmethyl)-6,9,12,15,18-pentaoxo-1,2-dithia-5,8,11,14,17-pentaaza-cycloicosane-4-carboxylic acid (2-hydroxy-1-hydroxymethyl-propyl)-amide] |  | 2040 nM and 2690 nM and 1510 nM | 1290 nM and 513 nM and 676 nM |  | 
CC(C)[C@H](NC(=O)[C@H](CCCCN)NC(=O)[C@@H](Cc1c[nH]c2ccccc12)NC(=O)[C@H](Cc1ccc(O)cc1)NC(=O)[C@H](Cc1ccccc1)NC(=O)[C@H](N)Cc1ccccc1)C(=O)N[C@@H](Cc1ccccc1)C(=O)N[C@H](Cc1cccc2ccccc12)C(N)=O [BIM 23056] (H-[dF]FY[dW]KVF[d1Nal]-NH2) | 63.1 nM | 275 nM | 91.2 nM |  | 
CC(C)[C@@H]1NC(=O)[C@H](CCCCN)NC(=O)[C@@H](Cc2c[nH]c3ccccc23)NC(=O)[C@H](Cc2ccc(O)cc2)NC(=O)[C@@H](NC(=O)[C@H](N)Cc2ccccc2)CSSC[C@@H](C(=O)N[C@@H](Cc2c[nH]c3ccccc23)C(N)=O)NC1=O [CAS_71306] (H-[dF]CY[dW]KVCW-NH2; disulfide 2-7) | 15.1 nM | 224 nM | 107 nM |  | 
CC(C)[C@@H]1NC(=O)[C@H](CCCCN)NC(=O)[C@@H](Cc2c[nH]c3ccccc23)NC(=O)[C@H](Cc2ccc(O)cc2)NC(=O)CCSSC(C(=O)N[C@@H](Cc2ccccc2)C(N)=O)NC1=O (stereo partly specified) [CAS_117580-24-2] ([Mpa]Y[dW]KV[X1]F-NH2; disulfide 1-6) | 22.9 nM | 6760 nM | 2950 nM |  | 
C[C@@H](O)[C@H](NC(=O)[C@H](Cc1ccccc1)NC(=O)[C@@H](NC(=O)[C@H](CCCCN)NC(=O)[C@@H](Cc1c[nH]c2ccccc12)NC(=O)[C@H](Cc1ccccc1)NC(=O)[C@H](Cc1ccccc1)NC(=O)[C@H](N)Cc1ccccc1)[C@@H](C)O)C(N)=O [CAS_133073-82-2] (H-[dF]FF[dW]KTFT-NH2) | 0.19 nM | 6.76 nM | 7.41 nM |  | 
C[C@@H](O)[C@@H]1NC(=O)[C@H](Cc2ccc(O)cc2)NC(=O)[C@H]([C@@H](C)O)NC(=O)[C@H](CCCCN)NC(=O)[C@H](Cc2c[nH]c3ccccc23)NC(=O)[C@H](Cc2ccccc2)NC(=O)[C@H](Cc2ccccc2)NC(=O)[C@H](CC(N)=O)NC(=O)[C@H](CCCCN)NC(=O)CCCCC[C@@H](C(=O)O)NC(=O)[C@H](CO)NC1=O [CGP-23996] (KNFFWKTYTS[Asu]-OH; lactam N-11) | 0.7 nM | 3.54 nM | 2.39 nM |  | 
C[C@@H](O)[C@@H]1NC(=O)[C@H](CCCCN)NC(=O)[C@H](Cc2c[nH]c3ccccc23)NC(=O)[C@H](Cc2ccccc2)NC(=O)[C@H](Cc2ccccc2)NC(=O)[C@H](CC(N)=O)NC(=O)[C@H](CCCCN)NC(=O)[C@@H](NC(=O)[C@@H]2CCCN2)CSSC[C@@H](C(=O)N[C@@H](CCCCN)C(=O)O)NC(=O)[C@H](CO)NC(=O)[C@H](CO)NC(=O)[C@H](Cc2ccc(O)cc2)NC1=O [CST14-Tyr10] (H-PCKNFFWKTYSSCK-OH; disulfide 2-13) | 0.95 nM and 1.99 nM and 1.25 nM | 4.78 nM and 2.75 nM and 0.91 nM | 5.01 nM and 3.63 nM and 6.76 nM | 1.17 nM and 1.69 nM and 1.23 nM and 1 nM | 
C[C@@H](O)[C@@H]1NC(=O)[C@H](CCCCN)NC(=O)[C@H](Cc2c[nH]c3ccccc23)NC(=O)[C@H](Cc2ccccc2)NC(=O)[C@H](Cc2ccccc2)NC(=O)[C@H](CC(N)=O)NC(=O)[C@H](CCCCN)NC(=O)[C@@H](NC(=O)[C@@H]2CCCN2)CSSC[C@@H](C(=O)N[C@@H](CCCCN)C(=O)O)NC(=O)[C@H](CO)NC(=O)[C@H](CO)NC(=O)[C@H](Cc2ccccc2)NC1=O [Cortistatin(1-14)] (H-PCKNFFWKTFSSCK-OH; disulfide 2-13) | 0.53 nM | 0.85 nM | 2.69 nM |  | 
CSCC[C@H](NC(=O)[C@H](CCCN=C(N)N)NC(=O)[C@@H](N)CC(=O)O)C(=O)N1CCC[C@H]1C(=O)N[C@H]1CSSC[C@@H](C(=O)N[C@@H](CCCCN)C(=O)O)NC(=O)[C@H](CO)NC(=O)[C@H](CO)NC(=O)[C@H](Cc2ccccc2)NC(=O)[C@H]([C@@H](C)O)NC(=O)[C@H](CCCCN)NC(=O)[C@H](Cc2c[nH]c3ccccc23)NC(=O)[C@H](Cc2ccccc2)NC(=O)[C@H](Cc2ccccc2)NC(=O)[C@H](CC(N)=O)NC(=O)[C@H](CCCN=C(N)N)NC1=O [Cortistatin] | 0.13 nM | 0.33 nM and 0.24 nM | 0.54 nM and 0.57 nM | 0.46 nM and 1.41 nM | 0.06 nM and 0.28 nM and 0.42 nM and 0.14 nM
C[C@@H](O)[C@@H]1NC(=O)[C@H](CCCCN)NC(=O)[C@@H](Cc2c[nH]c3ccccc23)NC(=O)[C@H](Cc2c[nH]c3ccccc23)NC(=O)[C@H](Cc2ccccc2)NC(=O)CCCCCCNC(=O)[C@H](Cc2ccccc2)NC1=O [L-362855] (cyclo([Ahp]FW[dW]KTF)) | 5.12 nM | 832 nM | 83.2 nM |  | 
CC(C)C[C@H](NC(=O)[C@H](C)NC(=O)[C@@H]1CCCN1C(=O)[C@H](CC(N)=O)NC(=O)[C@H](CO)NC(=O)[C@H](CC(N)=O)NC(=O)[C@H](C)NC(=O)[C@@H](N)CO)C(=O)N[C@@H](C)C(=O)N1CCC[C@H]1C(=O)N[C@@H](CCCN=C(N)N)C(=O)N[C@@H](CCC(=O)O)C(=O)N[C@@H](CCCN=C(N)N)C(=O)N[C@@H](CCCCN)C(=O)N[C@@H](C)C(=O)NCC(=O)N[C@H]1CSSC[C@@H](C(=O)O)NC(=O)[C@H](CO)NC(=O)[C@H]([C@@H](C)O)NC(=O)[C@H](Cc2ccc(O)cc2)NC(=O)[C@H]([C@@H](C)O)NC(=O)[C@H](CCCCN)NC(=O)[C@@H](Cc2c[nH]c3ccccc23)NC(=O)[C@H](Cc2ccccc2)NC(=O)[C@H](Cc2ccccc2)NC(=O)[C@H](CC(N)=O)NC(=O)[C@H](CCCCN)NC1=O [LTT-SRIF28] (H-SANSNPALAPRERKAGCKNFF[dW]KTYTSC-OH; disulfide 17-28) | 0.08 nM and 0.14 nM and 0.54 nM | 0.74 nM and 0.6 nM and 0.52 nM | 0.42 nM and 0.69 nM and 0.74 nM |  | 7.58 nM
C[C@@H](OCc1ccccc1)[C@@H]1NC(=O)[C@H](CCCCN)NC(=O)[C@@H](Cc2c[nH]c3ccccc23)NC(=O)[C@H](Cc2ccccc2)NC(=O)CCCCCCNC1=O [c[Aha-Phe-D-Trp-Lys-Thr(Bzl)]] (cyclo([Ahp]F[dW]KT(Bn))) | 132 nM | 331 nM | 513 nM |  | 
CC(C)[C@@H]1NC(=O)[C@H](CCCCN)NC(=O)[C@@H](Cc2c[nH]c3ccccc23)NC(=O)[C@H](Cc2ccc(O)cc2)NC(=O)[C@H](C)N(C)C(=O)[C@H](Cc2ccccc2)NC1=O [seglitide] | 20.9 nM |  |  |  | 
